ChEMBL document CHEMBL3352741, “Discovery of VU0431316: a negative allosteric modulator of mGlu5 with activity in a mouse model of anxiety” (Bioorg Med Chem Lett, 2014)

Tests used:
[1] = biological target: Metabotropic glutamate receptor 5 (Rattus norvegicus) (UniProt P31424); experiment: Negative allosteric modulator activity at rat mGlu5 expressed in HEK293A cells assessed as reduction in 100 uM glutamate-induced calcium mobilization at 30 uM; format: functional, cell-based; conditions: HEK293-A
[2] = biological target: Metabotropic glutamate receptor 5 (Rattus norvegicus, UniProt P31424); experiment: Negative allosteric modulator activity at rat mGlu5 expressed in HEK293A cells assessed as reduction in glutamate-induced calcium mobilization; format: functional, cell-based, HEK293-A
Sequence of Metabotropic glutamate receptor 5 (P31424 whole entry): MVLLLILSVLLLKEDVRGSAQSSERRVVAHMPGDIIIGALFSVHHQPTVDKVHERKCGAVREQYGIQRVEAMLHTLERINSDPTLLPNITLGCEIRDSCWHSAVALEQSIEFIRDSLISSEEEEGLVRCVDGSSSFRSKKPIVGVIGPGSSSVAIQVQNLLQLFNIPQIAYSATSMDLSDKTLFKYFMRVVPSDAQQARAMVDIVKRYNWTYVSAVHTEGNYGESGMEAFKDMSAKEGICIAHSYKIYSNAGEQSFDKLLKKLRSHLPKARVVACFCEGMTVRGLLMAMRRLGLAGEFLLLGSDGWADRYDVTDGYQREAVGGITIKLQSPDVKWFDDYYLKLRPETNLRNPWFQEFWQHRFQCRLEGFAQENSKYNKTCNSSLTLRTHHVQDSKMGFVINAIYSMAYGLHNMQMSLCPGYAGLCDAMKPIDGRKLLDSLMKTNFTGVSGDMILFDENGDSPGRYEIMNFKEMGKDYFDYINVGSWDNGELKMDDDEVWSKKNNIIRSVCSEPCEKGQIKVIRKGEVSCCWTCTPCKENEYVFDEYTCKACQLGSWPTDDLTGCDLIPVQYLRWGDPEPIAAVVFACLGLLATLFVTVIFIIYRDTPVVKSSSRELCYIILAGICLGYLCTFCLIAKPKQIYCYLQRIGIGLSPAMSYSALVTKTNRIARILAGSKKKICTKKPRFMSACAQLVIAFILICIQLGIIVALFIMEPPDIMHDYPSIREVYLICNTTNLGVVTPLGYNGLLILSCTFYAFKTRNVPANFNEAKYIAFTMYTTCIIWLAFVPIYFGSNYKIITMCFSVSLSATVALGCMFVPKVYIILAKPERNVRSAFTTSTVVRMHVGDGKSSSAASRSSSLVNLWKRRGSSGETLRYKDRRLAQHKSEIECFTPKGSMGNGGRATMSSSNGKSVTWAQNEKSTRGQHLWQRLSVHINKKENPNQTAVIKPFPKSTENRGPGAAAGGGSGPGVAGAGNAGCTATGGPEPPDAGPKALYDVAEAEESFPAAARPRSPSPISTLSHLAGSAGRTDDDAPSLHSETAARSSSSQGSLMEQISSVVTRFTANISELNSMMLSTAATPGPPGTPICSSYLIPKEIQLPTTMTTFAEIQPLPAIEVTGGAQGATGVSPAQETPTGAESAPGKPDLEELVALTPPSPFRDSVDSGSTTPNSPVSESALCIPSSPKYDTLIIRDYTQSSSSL

Sequence of Metabotropic glutamate receptor 5 (Rattus norvegicus) (P31424 21-1203 limits assumed): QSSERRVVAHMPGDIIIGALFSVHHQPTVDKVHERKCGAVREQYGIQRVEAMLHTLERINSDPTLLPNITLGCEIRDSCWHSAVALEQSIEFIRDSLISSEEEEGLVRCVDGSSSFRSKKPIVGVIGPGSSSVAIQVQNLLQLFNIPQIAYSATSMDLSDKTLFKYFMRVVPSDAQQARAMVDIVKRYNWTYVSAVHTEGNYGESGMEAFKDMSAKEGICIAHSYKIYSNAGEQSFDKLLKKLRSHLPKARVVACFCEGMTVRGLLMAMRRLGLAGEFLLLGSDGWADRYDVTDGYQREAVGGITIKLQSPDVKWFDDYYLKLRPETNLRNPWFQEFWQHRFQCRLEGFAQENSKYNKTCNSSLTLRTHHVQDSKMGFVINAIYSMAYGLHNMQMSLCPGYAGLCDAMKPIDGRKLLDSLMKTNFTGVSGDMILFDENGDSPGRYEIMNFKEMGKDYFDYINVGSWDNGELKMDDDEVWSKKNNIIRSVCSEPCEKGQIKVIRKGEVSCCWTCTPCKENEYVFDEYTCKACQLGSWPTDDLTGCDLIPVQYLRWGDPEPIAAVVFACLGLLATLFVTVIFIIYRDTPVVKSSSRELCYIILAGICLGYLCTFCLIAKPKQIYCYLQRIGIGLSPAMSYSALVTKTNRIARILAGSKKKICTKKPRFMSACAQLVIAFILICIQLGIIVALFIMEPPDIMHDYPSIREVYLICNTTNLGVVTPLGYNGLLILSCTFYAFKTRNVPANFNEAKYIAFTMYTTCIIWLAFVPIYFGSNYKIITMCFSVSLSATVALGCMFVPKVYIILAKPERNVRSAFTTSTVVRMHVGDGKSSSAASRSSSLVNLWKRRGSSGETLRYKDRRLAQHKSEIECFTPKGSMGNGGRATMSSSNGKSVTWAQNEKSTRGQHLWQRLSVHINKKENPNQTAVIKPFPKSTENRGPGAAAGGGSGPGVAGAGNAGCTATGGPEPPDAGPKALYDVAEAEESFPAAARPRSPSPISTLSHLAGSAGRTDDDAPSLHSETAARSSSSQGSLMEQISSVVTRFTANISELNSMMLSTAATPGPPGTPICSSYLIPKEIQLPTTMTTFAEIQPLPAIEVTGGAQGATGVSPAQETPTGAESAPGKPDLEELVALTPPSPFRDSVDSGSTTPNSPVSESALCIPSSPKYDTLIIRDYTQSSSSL

Row | %max [1] | IC50 [2] | SMILES
1 | 2.1% | 0.199 µM | Cc1cccc(C(=O)Nc2cncc(Oc3cncc(F)c3)n2)c1
2 |  | > 30 µM | O=C(Nc1cncc(Oc2cncc(F)c2)n1)c1cc(Cl)cc(Cl)c1
3 | 1.7% | 0.311 µM | Cc1ccnc(C(=O)Nc2cncc(Oc3cncc(F)c3)n2)c1
4 | -4.3% |  | COc1cccc(C(=O)Nc2cncc(Oc3cncnc3)n2)c1
5 |  | > 30 µM | O=C(Nc1cncc(Oc2cncc(F)c2)n1)c1cccnc1
6 |  | > 30 µM | Cc1cccc(C(=O)Nc2cncc(Oc3cncc(F)c3)n2)n1
7 | 0.1% |  | O=C(Nc1cncc(Oc2cncc(F)c2)n1)c1ccsc1
8 | 48% | > 10 µM | O=C(Nc1cncc(Oc2cncc(F)c2)n1)c1cc(F)cc(Cl)c1
9 | -2.8% | 4.59 µM | O=C(Nc1cncc(Oc2cncc(F)c2)n1)c1ccc(F)c(Cl)c1
10 |  | > 30 µM | COc1cc(OC)cc(C(=O)Nc2cncc(Oc3cncc(F)c3)n2)c1

More lines, now with the values behind:

Row | SMILES | %max [1] | IC50 [2]
11 | Cc1nc(C(=O)Nc2cncc(Oc3cncc(F)c3)n2)cs1 | 19% | 
12 | O=C(Nc1cncc(Oc2cncc(F)c2)n1)c1cccc(F)c1 | -0.4% | 3.82 µM
13 | O=C(Nc1cncc(Oc2cncc(F)c2)n1)c1cc(Cl)ccn1 | 2% | 0.111 µM
14 | O=C(Nc1cncc(Oc2cncc(F)c2)n1)c1cscn1 | 22% | 8.43 µM
15 | O=C(Nc1cncc(Oc2cncnc2)n1)c1cccs1 | 20% | > 10 µM
16 | O=C(Nc1cncc(Oc2cncc(F)c2)n1)c1cccc(Cl)c1F |  | > 30 µM
17 | O=C(Nc1cncc(Oc2cncc(F)c2)n1)c1ccccn1 | 40% | > 10 µM
18 | O=C(Nc1cncc(Oc2cncnc2)n1)c1cscn1 | 35% | > 10 µM
19 | Cc1cc(C(=O)Nc2cncc(Oc3cncc(F)c3)n2)cs1 | 1.1% | 0.99 µM
20 | O=C(Nc1cncc(Oc2cncc(F)c2)n1)c1cncs1 |  | > 30 µM
21 | CN(C)c1cccc(C(=O)Nc2cncc(Oc3cncc(F)c3)n2)c1 | 52% | > 10 µM
22 | O=C(Nc1cncc(Oc2cncc(F)c2)n1)c1nccs1 | 40% | > 10 µM
